Laboratory results taken from patent US20110301155A1, “INDAZOLE COMPOUNDS FOR ACTIVATING GLUCOKINASE” (priority 2007, published 2011).
Where a name gives a salt, the structure may show the parent alone.

How the values were obtained:
[1] = molecular target: T1, GST-hLGK1 (human liver type GK) (Homo sapiens, UniProt P35557); experiment: Determination of GK activity value (fluorescence assay); format: biochemical; conditions: test compound 10 μmol/L, 5 mmol/L D-glucose, reaction rate as percentage of control without compound
T1 construct: made in house; host or cells: Escherichia coli BL21 (pGEX6P-2/hLGK1)
T1 sequence (P35557 1-464 isoform P35557-3): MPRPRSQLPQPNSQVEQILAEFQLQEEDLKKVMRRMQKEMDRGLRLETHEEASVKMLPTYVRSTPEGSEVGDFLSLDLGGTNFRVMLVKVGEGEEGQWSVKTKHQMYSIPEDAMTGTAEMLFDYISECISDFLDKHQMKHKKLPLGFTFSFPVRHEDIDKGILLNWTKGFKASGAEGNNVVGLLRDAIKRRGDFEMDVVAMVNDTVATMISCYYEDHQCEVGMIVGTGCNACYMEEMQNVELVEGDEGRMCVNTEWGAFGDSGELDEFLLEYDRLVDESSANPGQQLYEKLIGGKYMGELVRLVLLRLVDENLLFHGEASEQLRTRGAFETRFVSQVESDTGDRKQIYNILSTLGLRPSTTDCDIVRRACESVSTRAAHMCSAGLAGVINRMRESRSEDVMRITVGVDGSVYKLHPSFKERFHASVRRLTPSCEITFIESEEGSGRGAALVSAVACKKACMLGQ
Method: Plasmid DNA to be used for the expression of a protein (GST-hLGK1) containing GST (Glutathione S-transferase) added to the amino terminal of human liver type GK in Escherichia coli was prepared as shown below.
BL21 strain (Stratagene) transformed with pGEX6P-2/hLGK1 obtained in Reference Example 1A was cultured with shaking at 37° C. for 14 hr in a 200 ml Erlenmeyer flask containing 50 ml of 100 μg/ml ampicillin-containing LB medium. The culture medium (25 ml) was diluted with 225 ml of 100 μg/ml ampicillin-containing LB medium, and further cultured with shaking at 37° C. for 1 hr in a 1L Erlenmeyer flask. After culture, the Erlenmeyer flask was cooled on ice, 125 μL of 100 mM isopropyl-thio-β-D-galactopyranoside (IPTG) was added (final concentration 50 μM), and cultured at 17° C. for 20 hr. The culture medium was centrifuged, and the obtained fungus was disrupted by ultrasonication. The object protein (GST-hLGK1) was purified from the supernatant using Glutathione Sepharose 4B (Amersham Biosciences. K.K.).
GK enzyme reactions were performed in 50 mmol/L HEPES pH 7.4, 200 mmol/L KCl, 5 mmol/L MgCl2, 2 mmol/L DTT, containing 50 μmol/L 2′-(or-3′)-O-(N-methylanthraniloyl)adenosine 5′-triphosphate (Mant-ATP) (Jena Bioscience GmbH), 5 mmol/L D-glucose, 5% DMSO and 6 μg/mL GST-hLGK1 obtained in Reference Example 2A in a total volume 50 μL. The reactions were performed in 384 well black plates (Nalge Nunc International K.K.). Prior to the reaction, the enzyme and test compound were incubated for 10 min at 37° C., and 25 mM D-glucose solution (10 μL) was added to start the reaction. The final concentration of the test compound is 10 μmol/L. After the incubation for 60 min at 37° C., the reaction was quenched by adding 25 μL of a quenching solution (containing 200 mM HEPES (pH 7.4), 20 mM MgCl2, 200 mM EDTA, 0.03% Triton-X 100, 0.3% Coating 3 reagent (Caliper Life Sciences, Inc.)).
Mant-ATP (substrate, 2′-(or-3′)—O—(N-methylanthraniloyl)adenosine 5′-triphosphate) and Mant-ADP (reaction resultant product) were separated from each well after the reaction by a microchip type capillary electrophoresis apparatus 250 HTS (Caliper Life Sciences, Inc.). The reaction rate [(reaction resultant product peak height)/(reaction resultant product peak height+substrate peak height)×100(%)] was calculated from the ratio of the substrate peak height and reaction resultant product peak height obtained by fluorescence detection (excitation wavelength 355 nm, measurement wavelength 460 nm) and used as the index of GK activity.
As a control group, the reaction rate was calculated in the same manner as above without the test compounds.
The percentage obtained by dividing the reaction rate of the well added with the test compound (test compound addition group) by the reaction rate of the control group was taken as the GK activity value (Emax) of the test compound.

[2] = molecular target: T2, GK (recombinant glucokinase, residues 12-465 of the human enzyme) (Homo sapiens, UniProt P35557); experiment: Determination of GK activity value (luminescence assay); format: biochemical; conditions: calculated maximal gain in GK enzyme activity at saturating compound concentration; 5 mM glucose, 5 μM ATP
T2 construct: FLAG (C-terminal tag of vector pFLAG-CTC; only the vector is printed) (C); made in house; host or cells: Escherichia coli DH10b-T1r (pFLAG-CTC plasmid)
T2 sequence (P35557 12-465): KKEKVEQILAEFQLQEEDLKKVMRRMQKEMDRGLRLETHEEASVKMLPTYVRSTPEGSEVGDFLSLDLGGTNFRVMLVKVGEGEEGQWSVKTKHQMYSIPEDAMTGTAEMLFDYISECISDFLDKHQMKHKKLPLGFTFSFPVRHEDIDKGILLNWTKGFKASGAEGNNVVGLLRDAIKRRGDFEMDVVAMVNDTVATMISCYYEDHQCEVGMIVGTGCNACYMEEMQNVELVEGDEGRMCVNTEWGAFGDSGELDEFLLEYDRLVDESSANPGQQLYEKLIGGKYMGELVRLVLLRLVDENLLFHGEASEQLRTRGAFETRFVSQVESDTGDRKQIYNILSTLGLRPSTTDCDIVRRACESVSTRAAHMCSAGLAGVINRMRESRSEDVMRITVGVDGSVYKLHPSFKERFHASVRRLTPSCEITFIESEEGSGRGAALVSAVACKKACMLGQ
Excerpt: DNA encoding residues 12-465 of the full-length sequence of the human enzyme may be amplified by PCR and cloned into the HindIII and EcoRI sites of pFLAG-CTC (Sigma). SEQ.I.D. No. 1 corresponds to residues 12-465 of glucokinase.
The expression of recombinant glucokinase protein may be carried out by transformation and growth of DH10b-T1r E. coli cells incorporating the (pFLAG-CTC) plasmid in LB media. Protein expression can be induced in this system by the addition of IPTG to the culture medium.
Recombinant protein may be isolated from cellular extracts by passage over Sepharose Q Fast Flow resin (Pharmacia). This partially purified GK extract may then be further purified by a second passage over Poros HQ10 (Applied Biosystems). The purity of GK may be determined on denaturing SDS-PAGE gel. Purified GK may then be concentrated to a final concentration of 20.0 mg/ml. After flash freezing in liquid nitrogen, the proteins can be stored at −78° C. in a buffer containing 25 mM TRIS-HCl pH 7.6, 50 mM NaCl, and 0.5 mM TCEP.
The activation properties of compounds for GK may be determined using a black 384-well-plate format under the following reaction conditions: 25 mM Hepes pH 7.2, 25 mM NaCl, 10 mM MgCl2, 0.01% Brij35, 1 mM DTT, 5 μM ATP, 5 mM Glucose 2% DMSO. The amount of ATP consumed may be determined quantitatively by addition of equal volume of luciferase reagent (luciferase+beetle luciferin—KinaseGlo Luminescent Kinase Assay kit from Promega). The luminescence intensity may be measured by using the Analyst HT from LJL Biosystems.
The assay reaction may be initiated as follows: 4 μl of substrate mixture (12.5 μM ATP and 12.5 mM Glucose) was added to each well of the plate, followed by the addition of 2 μl of activator (2 fold serial dilutions for 11 data points for each activator) containing 10% DMSO. 4 μL of 1.25 nM GK solution obtained in Reference Example 3A may be added to initiate the reaction. The reaction mixture may then be incubated at room temperature for 60 min, and quenched and developed by addition of 10 μL of luciferase reagent. Luminescence intensities of the resulting reaction mixtures may be measured after a 10 min incubation at room temperature. The luminescence intensity may be measured by using the Analyst HT from LJL Biosystems.
% ACTmax values may be calculated by non-linear curve fitting of the compound concentrations and luminescence intensities to a standard inhibition/activation equation. % ACTmax represents the calculated maximal gain in GK enzyme activity at a saturating concentration of the compound. % ACTmax values for select compounds of the present invention are given in Table 2.

| Structure (SMILES) | melting point [°C] | Emax at 10 µM [1] [%] | % ACTmax [2] [%] |
| --- | --- | --- | --- |
| CC(C)Cc1cc(OCC(=O)N(C)C)c2[nH]nc(Nc3nccs3)c2c1 [Example 73, 2-{[5-isobutyl-3-(1,3-thiazol-2-ylamino)-1H-indazole-7-yl]oxy}-N,N-dimethylacetamide] | 96 to 98 | 111 | – |
| Clc1cccnc1-c1ccc2[nH]nc(Nc3ncc(CN4CCOCC4)s3)c2c1 [Example 34, 5-(3-chloropyridin-2-yl)-N-[5-(morpholin-4-ylmethyl)-1,3-thiazol-2-yl]-1H-indazole-3-amine] | 217 | 186 | – |
| CC(C)S(=O)(=O)c1cc(Oc2ccc(S(C)(=O)=O)cc2)c2[nH]nc(Nc3ccn(C)n3)c2c1 [Example 136, 5-(isopropylsulfonyl)-N-(1-methyl-1H-pyrazol-3-yl)-7-(4-(methylsulfonyl)phenoxy)-1H-indazol-3-amine trifluoroacetic acid salt] | – | – | 110.9 |
| CCn1nc(Nc2nccs2)c2cc(-c3ncccc3Cl)ccc21 [Example 30, 5-(3-chloropyridin-2-yl)-1-ethyl-N-1,3-thiazol-2-yl-1H-indazole-3-amine] | – | 129 | – |
| O=S(=O)(c1ccc2[nH]nc(Nc3nccs3)c2c1)N1CCCC1 [Example 20, 5-(pyrrolidin-1-ylsulfonyl)-N-1,3-thiazol-2-yl-1H-indazole-3-amine] | – | 156 | – |
| Cn1ccc(Nc2n[nH]c3ccc(-c4ncccc4Cl)cc23)n1 [Example 63, 5-(3-chloropyridin-2-yl)-N-(1-methyl-1H-pyrazol-3-yl)-1H-indazole-3-amine] | 190 to 191 | 175 | – |
| Cn1ccnc1Sc1ccc2[nH]nc(Nc3nccs3)c2c1 [Example 109, 5-[(1-methyl-1H-imidazol-2-yl)thio]-N-1,3-thiazol-2-yl-1H-indazole-3-amine] | > 250 | 218 | – |
| Cn1ccc(Nc2n[nH]c3c(Oc4ccc(S(C)(=O)=O)cc4)cc(-c4ncccc4Cl)cc23)n1 [Example 105, 5-(3-chloropyridin-2-yl)-N-(1-methyl-1H-pyrazol-3-yl)-7-[4-(methylsulfonyl)phenoxy]-1H-indazole-3-amine] | – | 140 | – |
| CCNC(=O)Nc1n[nH]c2ccc(-c3ncccc3Cl)cc12 [Example 101, N-[5-(3-chloropyridin-2-yl)-1H-indazol-3-yl]-N′-ethylurea] | 178 to 180 | 202 | – |
| CCCc1cc(-c2cc3ccccc3s2)c2[nH]nc(Nc3nccs3)c2c1 [Example 28, 7-(1-benzothien-2-yl)-5-propyl-N-1,3-thiazol-2-yl-1H-indazole-3-amine] | – | 231 | – |

More lines, now with the values ahead:

| melting point [°C] | Emax at 10 µM [1] [%] | % ACTmax [2] [%] | Structure (SMILES) |
| --- | --- | --- | --- |
| 190 to 191 | 211 | – | CC(C)S(=O)(=O)c1cc(OCCc2ccccn2)c2[nH]nc(Nc3nccs3)c2c1 [Example 117, 5-(isopropylsulfonyl)-7-(2-pyridin-2-ylethoxy)-N-1,3-thiazol-2-yl-1H-indazole-3-amine] |
| 89 to 91 | 200 | – | Cn1ccc(Nc2n[nH]c3c(OCCc4ccccn4)cc(-c4ncccc4Cl)cc23)n1 [Example 100, 5-(3-chloropyridin-2-yl)-N-(1-methyl-1H-pyrazol-3-yl)-7-(2-pyridin-2-ylethoxy)-1H-indazole-3-amine] |
| 185 to 187 | 231 | – | Clc1cccnc1-c1cc(OCCc2ccccn2)c2[nH]nc(Nc3nccs3)c2c1 [Example 85, 5-(3-chloropyridin-2-yl)-7-(2-pyridin-2-ylethoxy)-N-1,3-thiazol-2-yl-1H-indazole-3-amine] |
| – | 199 | – | COC[C@H](C)Oc1cc(OCCc2ccccn2)c2[nH]nc(Nc3nccs3)c2c1 [Example 108, 5-[(1S)-2-methoxy-1-methylethoxy]-7-(2-pyridin-2-ylethoxy)-N-1,3-thiazol-2-yl-1H-indazole-3-amine dihydrochloride] |
| 150 to 151 | 194 | – | CC(C)Cc1cc(OCCc2ccsc2)c2[nH]nc(Nc3nccs3)c2c1 [Example 72, 5-isobutyl-N-1,3-thiazol-2-yl-7-[2-(3-thienyl)ethoxy]-1H-indazole-3-amine] |
| 150 to 153 | – | – | COC[C@H](C)Oc1cc(OCCc2ccccn2)c2[nH]nc(Nc3nccs3)c2c1 (as salt: hydrochloride) [Example 108, 5-[(1S)-2-methoxy-1-methylethoxy]-7-(2-pyridin-2-ylethoxy)-N-1,3-thiazol-2-yl-1H-indazole-3-amine dihydrochloride] |
